# Literature values in patent US8940724B2, “Quinoline derivitives and their uses” (Amgen Inc., priority 2009, dated 2015).
# How the values were obtained:
# Conditions in all cases: cited from earlier work
# p110δ = biological target: T1, p110δ (Homo sapiens, UniProt O00329)
# T1 sequence (O00329 1-1044): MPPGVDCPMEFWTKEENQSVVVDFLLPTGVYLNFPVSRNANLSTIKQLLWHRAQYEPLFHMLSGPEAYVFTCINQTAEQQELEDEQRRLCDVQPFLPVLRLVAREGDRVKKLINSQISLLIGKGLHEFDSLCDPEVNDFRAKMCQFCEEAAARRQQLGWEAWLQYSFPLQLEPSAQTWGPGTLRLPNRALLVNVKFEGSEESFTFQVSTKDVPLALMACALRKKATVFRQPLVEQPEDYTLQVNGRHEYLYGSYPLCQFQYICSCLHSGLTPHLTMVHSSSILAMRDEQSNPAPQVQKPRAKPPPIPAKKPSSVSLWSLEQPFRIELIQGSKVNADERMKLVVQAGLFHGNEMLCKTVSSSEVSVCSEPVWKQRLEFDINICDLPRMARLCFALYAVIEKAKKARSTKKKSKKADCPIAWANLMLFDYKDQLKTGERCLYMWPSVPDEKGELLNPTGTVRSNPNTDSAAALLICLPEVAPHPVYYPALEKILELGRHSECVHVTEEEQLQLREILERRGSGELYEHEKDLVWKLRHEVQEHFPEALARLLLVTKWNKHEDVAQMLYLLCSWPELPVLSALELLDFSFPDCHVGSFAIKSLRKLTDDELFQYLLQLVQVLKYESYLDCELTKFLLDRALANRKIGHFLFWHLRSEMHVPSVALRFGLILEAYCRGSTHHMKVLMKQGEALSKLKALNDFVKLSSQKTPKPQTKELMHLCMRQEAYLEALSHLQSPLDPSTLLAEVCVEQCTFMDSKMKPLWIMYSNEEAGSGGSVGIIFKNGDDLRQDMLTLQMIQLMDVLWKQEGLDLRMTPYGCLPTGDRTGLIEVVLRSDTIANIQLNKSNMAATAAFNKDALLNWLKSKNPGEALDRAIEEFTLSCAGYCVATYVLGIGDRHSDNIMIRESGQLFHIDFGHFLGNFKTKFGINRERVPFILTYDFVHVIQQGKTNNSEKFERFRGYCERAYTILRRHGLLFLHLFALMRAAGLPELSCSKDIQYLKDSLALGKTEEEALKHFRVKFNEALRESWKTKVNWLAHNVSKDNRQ
# [1] = tested on: ovalbumin-induced airway inflammation
# protein kinases = tested on: protein kinases
smiles,measurement,setting,value
Cc1ccccc1-n1c(Cn2cnc3c(N)ncnc32)nc2cccc(C)c2c1=O [IC87114],inhibits p110δ,p110δ,high nanomolar range (triple digit)
same,inflammation and disease in a murine model of asthma,[1],significantly ameliorate inflammation and disease
same,activity against any protein kinases tested,protein kinases,no activity
